From patent US8969542B2, “HPV polyepitope constructs and uses thereof” (priority 2007, dated 2015)
Where two headings read alike, the source gives them in different places. Where no end group is shown, it is not given here.

Legend:
[1] = target: T1, DRB1*0401 (DR4w4) (Homo sapiens, UniProt P01903+P01911, A100K/A169T/F76Y/I96L/K127E/L162R/M171V/N62H/P40V/Q125Y/R42H/S133A/S149N/S66Y/V115G/V209L/W38E); conditions: read-out: IC50 nM to purified HLA DRB1 *0401; HTL epitopes
[2] = target: T2, DRB4*0101 (DRw53) (Homo sapiens, UniProt P01903+P13762, G164S); conditions: read-out: IC50 nM to purified HLA DRB4 *0101; HTL epitopes
[3] = target: DRB1*0101 (DR1) (Homo sapiens, UniProt P01903+P01911, A100R/D57E/F55L/F60I/F76Y/I96L/L162R/M171V/P40L/Q125E/R42F/V115G/Y59C); experiment: biochemical
[4] = target: DRB1*0301 (DR3) (Homo sapiens, UniProt P01903+P01911, A100K/A102G/A103R/A169T/F55Y/I96L/K41T/L162R/M171V/P40S/Q125H/Q178H/Q39Y/R42S/S66N/T106N/T262R/W38E/Y61H); experiment: biochemical
[5] = target: T1, DRB1*0401 (DR4w4); experiment: biochemical
[6] = target: DRB1*0404 (DR4w14) (Homo sapiens, UniProt P01903+P01911, A100R/A169T/F76Y/I96L/K127E/L162R/M171V/N62H/P40V/Q125Y/R42H/S133A/S149N/S66Y/V209L/W38E); experiment: biochemical
[7] = target: DRB1*0405 (DR4w15) (Homo sapiens, UniProt P01903+P01911, A100R/A169T/D86S/F76Y/I96L/K127E/L162R/M171V/N62H/P40V/Q125Y/R42H/S133A/S149N/S66Y/V115G/V209L/W38E); experiment: biochemical
[8] = target: DRB1*0701 (DR7) (Homo sapiens, UniProt P01903+P01911, A100R/A102G/A103Q/D57E/D86V/E43K/F76Y/K127E/L162R/M171V/P40G/Q125H/Q99D/R33Q/R42Y/R54Q/S133A/S66F/T210M/V115G/Y107V/Y59L/Y89S); experiment: biochemical
[9] = target: DRB1*0802 (DR8w2) (Homo sapiens, UniProt P01903+P01911, A100R/A103L/A169T/F76Y/H45Y/I96F/K41T/L162R/M171V/P40S/Q125H/Q178H/Q39Y/Q99D/R218S/R42G/S66Y/V115G/W38E); experiment: biochemical
[10] = target: DRB1*1101 (DR5) (Homo sapiens, UniProt P01903+P01911, A100R/A169T/A87E/I96F/K41T/L162R/M171V/P40S/Q125H/Q178H/Q39Y/Q99D/R42S/S66Y/T262R/V115G/W38E); experiment: biochemical
[11] = target: DRB1*1302 (DR6w19) (Homo sapiens, UniProt P01903+P01911, A100E/A169T/K41T/L162R/M171V/P40S/Q125H/Q178H/Q39Y/Q99D/R42S/S66N/T262R/V115G/W38E/Y61H); experiment: biochemical
[12] = target: DRB1*1501 (DR2w2beta-1) (Homo sapiens, UniProt P01903+P01911); experiment: biochemical
[13] = target: T2, DRB4*0101 (DRw53); experiment: biochemical
[14] = target: DRB5*0101 (DR2w2beta-2) (Homo sapiens, UniProt P01903+Q30154); experiment: biochemical
[15] = target: DRB1*0901 (Homo sapiens, UniProt P01903+P01911, A100R/A103E/D57H/D86V/F55Y/F60I/F76Y/I96F/K127E/L162R/M171V/P40D/Q125H/Q99R/R33Q/R42F/S133A/S66N/T210M/V115G/W38K/Y107V/Y59G/Y89S); experiment: biochemical

T1 sequence (P01903 26-254 partner, other chains not shown): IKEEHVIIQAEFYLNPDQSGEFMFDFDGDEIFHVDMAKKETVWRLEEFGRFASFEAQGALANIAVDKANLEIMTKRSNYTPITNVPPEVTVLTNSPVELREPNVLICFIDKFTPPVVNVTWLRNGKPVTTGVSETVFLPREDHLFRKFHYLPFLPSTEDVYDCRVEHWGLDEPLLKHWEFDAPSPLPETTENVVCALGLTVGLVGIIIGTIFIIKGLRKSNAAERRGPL
Chain of DRB1*0405 (DR4w15) (P01903 26-254 partner, other chains not shown): as above
Chain of DRB1*0301 (DR3) (P01903 26-254, other chains not shown): as the sequence (P01903 26-254 partner, other chains not shown) above
Chain of DRB1*1101 (DR5) (P01903 26-254 partner, other chains not shown): as above
Chain of DRB1*1302 (DR6w19) (P01903 26-254, other chains not shown): as the sequence (P01903 26-254 partner, other chains not shown) above

How did the IC50 [1] turn out when “LQAIELQLTLETIYN (Human papillomavirus type 16) [SEQ ID 92]” was run?
Its IC50 is 37 nM.

And the IC50 [2]?
Its IC50 is 2 nM.

What does the source list for WKHMRLECAIYYKAR [compound 91]?
IC50 [3]: 701 nM; IC50 [4]: 437 nM; IC50 [5]: 245 nM; IC50 [6]: 6860 nM; IC50 [7]: 557 nM; IC50 [8]: 504 nM; IC50 [9]: 90 nM; IC50 [10]: 2400 nM; IC50 [11]: 248 nM; IC50 [12]: 1390 nM; IC50 [13]: 766 nM; IC50 [14]: 280 nM; IC50 [15]: 6340 nM
